Source: patent EP0153171A2, “New 2-hydroxyethyl-trimethylammonium salt of 1-ethyl-3-carboxy-4-oxo-6,7-methylenedioxy-1,4-dihydroquinoline, process for the preparation thereof and pharmaceutical composition containing it” (CHINOIN Gyogyszer és Vegyészeti Termékek Gyára RT., priority 1984, dated 1985)
Values joined by “and” are separate entries in the source; they are usually repeats but may differ in a detail not shown here. Equal values may be shown once. Where a name gives a salt, the structure may show the parent alone.

Tests used:
[1] = in vivo resorption examination in mice: serum concentration determined microbiologically from inhibition zones; design: species or system Male CFLP mice; details: for resorption: in vivo, comparison in words; for concentration at 0.5 h: 0.5 hour after treatment, as oxolinic acid; for concentration at 0.5 h / concentration at 1 h / concentration at 2 h / concentration at 3 h / concentration at 4 h: read-out: Plasma concentrations from the calibration curve; for concentration at 1 h: 1 hour after treatment; for concentration at 2 h: 2 hours after treatment; for concentration at 3 h: 3 hours after treatment; for concentration at 4 h: 4 hours after treatment; for Diameters of the inhibition zones: parallels a, b, c
Protocol: Male CFLP mice with 25 g of an average body weight were used for these experiments. After starving for 12 hours, the animals were given oxolinic acid or choline oxolinate, respectively in a volume of 2 ml/100 g of body weight as an aqueous suspension containing 1 % of methylcellulose. The doses administered were 50 mg/kg of body weight of oxolinic acid or 70 mg/kg of body weight of choline oxolinate, respectively. )These doses are equimolar as calculated for oxolinic acid.) At 0.5, 1, 2, 3 or 4 hours, respectively after treatment the animals were killed, their blood were centrifuged and the serum were used for the microbiological determination of the concentration.
(§1) The examinations were carried out in three parallels. 50/ul of the serum were applied to an agar gel plate containing Proteus Mirabilis in a concentration of 10^7 germs/ml. Simultaneously, a calibration curve was taken up with 50 ul each of suspensions containing oxolinic acid in a concentration of 1, 2, 4, 5, 10, 50 and 100 ug/ml, respectively. The serum concentrations were calculated from the average of diameters of the inhibition zones by using the calibration curve.
(§2) The calibration values are shown in Table I and in Figue 3, respectively. The results of determinations are summarized in Tables II and III and in Figure 4, respectively.

[2] = solubility of the substance in water and solvents
Proteus Mirabilis = assay: calibrating series on agar gel plate: inhibition zone against concentration; format: cell-based; details: 50 ul applied, 2 parallels
Protocol: as §1, with “The examinations were carried out in three parallels.” left out
as §2

[3] = mouse, serum, 50 mg/kg oxolinic acid or 70 mg/kg choline oxolinate
[4] = serum sampled at 1.0 hour, 50 mg/kg oxolinic acid or 70 mg/kg choline oxolinate
[5] = serum sampled at 2.0 hour, 50 mg/kg oxolinic acid or 70 mg/kg choline oxolinate
[6] = serum sampled at 3.0 hour, 50 mg/kg oxolinic acid or 70 mg/kg choline oxolinate
[7] = serum sampled at 4.0 hour, 50 mg/kg oxolinic acid or 70 mg/kg choline oxolinate

For CCn1cc(C(=O)O)c(=O)c2cc3c(cc21)OCO3 [choline oxolinate, 2-hydroxyethyl-trimethylammonium salt of 1-ethyl-3-carboxy-4-oxo-6,7-methylenedioxy-1,4-dihydroquinoline], the resorption [1] was “substantially better resorbed”, the bioavailability ([1]; mice, compared with administration of oxolinic acid) was “sigrificantly higher” and the concentration at 0.5 h [1, 3] was 56000 ng/mL. For the same compound, the concentration at 1 h [1, 3] was 26000 ng/mL, the concentration at 2 h [1, 3] was 15000 ng/mL and the concentration at 3 h [1, 3] was 6600 ng/mL. The concentration at 4 h [1, 3] was 3100 ng/mL, the Tmax ([1]; mouse, serum, mice, 70 mg/kg choline oxolinate, first sampling, read-out: time at which a high level of serum concentration was reached) was no more than 30 min and the “Diameters of the inhibition zones” value ([1]; serum sampled at 0.5 hour, equimolar doses: 50 mg/kg oxolinic acid or 70 mg/kg choline oxolinate, 50 ul serum on Proteus Mirabilis plate) was 22.6 mm and 21.9 mm. The “Diameters of the inhibition zones” value [1, 4] was 19.3 mm and 19.1 mm and 20.9 mm, the “Diameters of the inhibition zones” value [1, 5] was 18.2 mm and 17.8 mm and the “Diameters of the inhibition zones” value [1, 6] was 13.9 mm and 15.3 mm and 11.4 mm. The “Diameters of the inhibition zones” value [1, 7] was 11.7 mm and 14.3 mm, the “solubility (in words)” value ([2]; acetone) was “insoluble” and the “solubility (in words)” value ([2]; chloroform) was “dissolves well”. For the same compound, the “solubility (in words)” value ([2]; ethanol) was “dissolves well”, the “solubility (in words)” value ([2]; ether) was “insoluble” and the “solubility (in words)” value ([2]; water) was “dissolves well”. The solubility in water ([2]; water) was “higher than 1 g/ml”.
In the case of CCn1cc(C(=O)O)c(=O)c2cc3c(cc21)OCO3 [oxolinic acid, 1-ethyl--3-carboxy-4-oxo-6,7-methylenedioxy-1,4-dihydroquinoline], the zone of inhibition at 1 µg/mL (Proteus Mirabilis; Proteus mirabilis, concentration 1 /ug/ml, read-out: Diameter of the inhibition zone) is reported as 8.6 mm, the zone of inhibition at 2 µg/mL (Proteus Mirabilis; Proteus mirabilis, concentration 2 /ug/ml, read-out: Diameter of the inhibition zone) is reported as 11.6 mm and the zone of inhibition at 4 µg/mL (Proteus Mirabilis; Proteus mirabilis, concentration 4 /ug/ml, read-out: Diameter of the inhibition zone) is reported as 14.4 mm. For the same compound, the zone of inhibition at 5 µg/mL (Proteus Mirabilis; Proteus mirabilis, concentration 5 /ug/ml, read-out: Diameter of the inhibition zone) was 15 mm, the zone of inhibition at 10 µg/mL (Proteus Mirabilis; Proteus mirabilis, concentration 10 /ug/ml, read-out: Diameter of the inhibition zone) was 17.9 mm and the zone of inhibition at 50 µg/mL (Proteus Mirabilis; Proteus mirabilis, concentration 50 /ug/ml, read-out: Diameter of the inhibition zone) was 20.7 mm. The zone of inhibition at 100 µg/mL (Proteus Mirabilis; Proteus mirabilis, concentration 100 /ug/ml, read-out: Diameter of the inhibition zone) was 26.5 mm, the “Diameter of the inhibition zone” value (Proteus Mirabilis; concentration 1 /ug/ml) was 8.5 mm and the “Diameter of the inhibition zone” value (Proteus Mirabilis; concentration 2 /ug/ml) was 11.9 mm. For the same compound, the “Diameter of the inhibition zone” value (Proteus Mirabilis; concentration 4 /ug/ml) was 14.1 mm, the “Diameter of the inhibition zone” value (Proteus Mirabilis; concentration 5 /ug/ml) was 14.7 mm and the “Diameter of the inhibition zone” value (Proteus Mirabilis; concentration 10 /ug/ml) was 17.2 mm. For the same compound, the “Diameter of the inhibition zone” value (Proteus Mirabilis; concentration 50 /ug/ml) was 19.4 mm, the “Diameter of the inhibition zone” value (Proteus Mirabilis; concentration 100 /ug/ml) was 24.7 mm and the concentration at 0.5 h [1, 3] was 15000 ng/mL. It also gave a concentration at 1 h [1, 3] of 14500 ng/mL, a concentration at 2 h [1, 3] of 4600 ng/mL and a concentration at 3 h [1, 3] of 4200 ng/mL. For the same compound, the concentration at 4 h [1, 3] was 4800 ng/mL, the “Diameters of the inhibition zones” value [1, 4] was 17.7 mm and 18.2 mm and 17.5 mm and the “Diameters of the inhibition zones” value [1, 5] was 15.3 mm and 17.4 mm and 8.8 mm. For the same compound, the “Diameters of the inhibition zones” value [1, 6] was 14.0 mm and 16.0 mm and 14.3 mm, the “Diameters of the inhibition zones” value [1, 7] was 16.8 mm and 14.7 mm and 14.1 mm and the solubility in water ([2]; water) was 6,5 /ug/ml.
In the case of CCn1cc(C(=O)[O-])c(=O)c2cc3c(cc21)OCO3.[Na+] [sodium oxolinate], the resorption [1] is reported as “weaker than that of choline oxolinate”.
